Source: US20190119348A1, “PARATHYROID HORMONE RECEPTOR 1 ANTAGONIST AND INVERSE AGONIST POLYPEPTIDES AND METHODS OF THEIR USE” (The General Hospital Corporation, priority 2016, published 2019)
Where a SMILES comes first, the peptide text is derived from it. [ ]: non-standard residue; d: D form.

Experiments:
PTHR1 [1] = target: T1, PTHR1 (Mus musculus, UniProt P41593); experiment: Blood Ca2+ in wild-type mice after co-injection with PTH(1-34); format: in vivo; parameters: from tissue; host or cells: whole animal, wild-type mice (C57BL/6J per methods); settings: intravenous co-injection with PTH(1-34)
T1 sequence (P41593 27-591): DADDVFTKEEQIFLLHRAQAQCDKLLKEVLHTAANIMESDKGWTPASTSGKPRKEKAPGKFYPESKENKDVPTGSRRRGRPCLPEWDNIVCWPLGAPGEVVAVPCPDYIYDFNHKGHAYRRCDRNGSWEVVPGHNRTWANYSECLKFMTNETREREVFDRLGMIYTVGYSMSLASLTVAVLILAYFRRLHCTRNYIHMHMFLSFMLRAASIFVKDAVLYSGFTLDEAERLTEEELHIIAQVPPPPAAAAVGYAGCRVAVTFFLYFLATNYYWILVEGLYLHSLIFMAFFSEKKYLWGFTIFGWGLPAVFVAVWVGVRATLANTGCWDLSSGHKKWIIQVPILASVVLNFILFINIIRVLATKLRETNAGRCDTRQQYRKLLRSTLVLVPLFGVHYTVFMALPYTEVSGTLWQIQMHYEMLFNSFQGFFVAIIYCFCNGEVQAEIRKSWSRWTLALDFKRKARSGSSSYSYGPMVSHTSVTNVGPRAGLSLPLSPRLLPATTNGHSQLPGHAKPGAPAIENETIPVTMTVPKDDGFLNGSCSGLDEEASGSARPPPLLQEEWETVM
From the text: Wilde-type, ca. 10-week old male C57BL/6J mice were purchased from the Charles River Laboratories (Wilmington, Mass., USA). The origin and method of breeding of Col1-H223R “Jansen's” transgenic mice is described by Calvi et al. (J. Clin. Invest., 107:277-286, 2001). Mice were maintained in facilities operated by the Center for Comparative Research of the Massachusetts General Hospital, and acclimated in the facilities for seven days prior to being used for study. All experimental procedures were approved by the MGH Institutional Animal Care and Use Committee (IACUC). In each study, animals were assigned randomly to treatment groups. Where possible, power calculations established that the number of animals used per study group was sufficient to detect statistically significant differences in intended primary experimental outcomes (i.e., changes in serum Ca and Pi).
(§1) Mice were injected IV via the tail vein or subcutaneously with ligands in vehicle (0.05% Tween80; 10 mM citrate; 150 mM NaCl; pH 5.0) to give the intended final ligand dose (e.g. 50 nmol/kg body weight). At times immediately before (t=0) and after injection, tail vein blood was collected and analyzed for blood ionized calcium (Ca^2+) measured with a RAPIDLAB 348 analyzer (SIEMENS Healthcare Diagnostic, United Kingdom).

PTHR1 [2] = target: T2, PTHR1 (Homo sapiens, UniProt Q03431); experiment: Residual agonist activity, cAMP luminescence in GP-2.3 cells; format: cell-based; settings: ligands applied directly to GP-2.3 cells
T2 construct: expressed in transfected cells; host or cells: GP-2.3 (HEK-293 stably transfected with hPTHR1 and GloSensor)
T2 sequence (Q03431 27-593): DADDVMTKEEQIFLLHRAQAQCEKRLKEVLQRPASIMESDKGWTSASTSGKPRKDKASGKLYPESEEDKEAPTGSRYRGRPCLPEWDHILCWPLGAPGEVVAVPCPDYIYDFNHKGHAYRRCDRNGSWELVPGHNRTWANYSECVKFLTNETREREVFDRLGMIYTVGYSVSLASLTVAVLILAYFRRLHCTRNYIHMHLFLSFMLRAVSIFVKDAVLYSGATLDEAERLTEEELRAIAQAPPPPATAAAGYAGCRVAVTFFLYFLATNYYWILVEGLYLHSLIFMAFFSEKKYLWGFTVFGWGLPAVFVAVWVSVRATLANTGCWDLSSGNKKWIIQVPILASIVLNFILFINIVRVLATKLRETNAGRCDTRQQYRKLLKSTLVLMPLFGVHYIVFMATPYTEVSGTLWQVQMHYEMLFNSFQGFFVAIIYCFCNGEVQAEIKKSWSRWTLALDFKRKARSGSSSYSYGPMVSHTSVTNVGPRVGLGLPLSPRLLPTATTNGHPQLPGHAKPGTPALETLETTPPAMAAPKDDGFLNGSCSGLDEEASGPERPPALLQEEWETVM
Protocol: cAMP signaling was assessed in the HEK293-derived or SaOS2-derived cell lines stably expressing the luciferase-based GloSensor™ cAMP reporter (Hattersley et al., Paper presented at: Novel Signaling Mechanisms and Bone Cell Biology 2014; Binkowski et al., Methods in molecular biology. 756:263-271). HEK-293 cells were further transfected to stably express the hPTHR1, hPTHR1-H223R, or hPTHR1-T410P. The cells were seeded into 96-well white plates and were assayed 24 to 48 hours post-confluency. Assays were performed at room temperature in CO2-independent culture media (Life Technologies, Corp., Carlsbad, Calif.) containing 0.1% BSA (CIDB). The cells were pre-loaded with luciferin (0.5 mM in CIDB) for 15 minutes, then PTH peptides were added at varying concentrations. cAMP-dependent luminescence was measured at two-minute intervals using a PerkinElmer Envision plate reader. The time at which maximum luminescence (cps) observed with agonist alone, typically at 10-20 minutes after agonist addition, was used to obtain data from wells containing antagonist with or without agonist, to thus generate antagonist ligand dose-response curves. The resulting cps values were then plotted against ligand concentration using GraphPad Prism 7.0 software and a four-parameter logistics curve fitting equation, which yielded parameters of inhibitory potency (pIC50).

wild-type PTHR = target: T3, wild-type PTHR (Mus musculus, UniProt P41593); experiment: Mouse transient model of hyperparathyroidism (PEG-PTH(1-35)-induced hypercalcemia), blood Ca2+; format: in vivo; settings: 10-week old female CD1 mice; PEG-PTH(1-35)-1925 50 nmol/kg i.v. at −24 h; peptide 500 nmol/kg at 0 h; P<0.05 vs vehicle at 2 h
T3 construct: Wild-type mice were injected with a PTH agonist analog; from tissue; host or cells: whole animal, wild-type mice (C57BL/6J per methods)
T3 sequence (P41593 27-591): T1 sequence (P41593 27-591)
Protocol: as §1
To study antagonism at the wild-type PTHR under conditions of excess PTH, as occurs in humans with hyperparathyroidism, we developed a mouse non-genetic, transient model of hyperparathyroidism. Wild-type mice were injected with a PTH agonist analog, PEG-PTH(1-35), which induces hypercalcemia lasting between 24 and 72 hours after a single s.c. injection (see Guo et al., Journal of Bone and Mineral Research, 32:86-98, 2017). Antagonists were injected after 24 hours following the injection of PEG-PTH(1-35) and effects on blood Ca^2+ levels were measured. The results are illustrated in FIGS. 12A and 12B.

residual agonist activity compared with dTrp^12-PTH(7-34)-1894 (PTHR1 [2]): less residual agonist activity | effect on blood Ca^2+ (FIG. 12A) (wild-type PTHR): reduced blood Ca^2+
Structure (SMILES): CC[C@H](C)[C@H](N)C(=O)N[C@@H](CCC(N)=O)C(=O)N[C@@H](CC(C)C)C(=O)N[C@@H](CCSC)C(=O)N[C@@H](Cc1c[nH]cn1)C(=O)N[C@@H](CCC(N)=O)C(=O)N[C@@H](CCCNC(=N)N)C(=O)N[C@H](Cc1c[nH]c2ccccc12)C(=O)N[C@@H](CCCCN)C(=O)N[C@@H](Cc1c[nH]c2ccccc12)C(=O)N[C@H](C(=O)N[C@@H](CCC(N)=O)C(=O)N[C@@H](CC(=O)O)C(=O)N[C@@H](C)C(=O)N[C@@H](CCCNC(=N)N)C(=O)N[C@@H](CCCNC(=N)N)C(=O)N[C@@H](CCCNC(=N)N)C(=O)N[C@@H](C)C(=O)N[C@@H](Cc1c[nH]c2ccccc12)C(=O)N[C@@H](CC(C)C)C(=O)N[C@@H](Cc1c[nH]cn1)C(=O)N[C@@H](CCCCN)C(=O)N[C@@H](CC(C)C)C(=O)N[C@H](C(=O)N[C@@H](C)C(=O)N[C@@H](CCC(=O)O)C(=O)N[C@H](C(=O)N[C@@H](Cc1c[nH]cn1)C(=O)N[C@H](C(=O)N[C@@H](C)C(=O)N[C@@H](CCC(=O)O)C(=O)N[C@H](C(N)=O)[C@@H](C)CC)[C@@H](C)O)[C@@H](C)CC)[C@@H](C)CC)[C@@H](C)CC [compound 1949, dW12, W23-LA-PTH(5-36)] (H-IQLMHQR[dW]KWIQDARRRAWLHKLIAEIHTAEI-NH2; N-terminus assumed)
effect on calcemic response to PTH(1-34) (FIG. 11) (PTHR1 [1]): inhibited the capacity of the injected PTH(1-34) agonist to induce a calcemic response
